The values below come from ChEMBL document CHEMBL3351315, “Tanzawaic acid derivatives from a marine isolate of Penicillium sp. (SF-6013) with anti-inflammatory and PTP1B inhibitory activities” (Bioorg Med Chem Lett, 2014).

Data set [1] deals with BV-2. In words: Inhibition of LPS-induced nitric oxide production in mouse BV2 cells pre-treated for 3 hrs before LPS stimulation by ELISA based Griess assay. In kind it is functional, cell-based.
Data set [2] has as its target T1, Tyrosine-protein phosphatase non-receptor type 1 (Homo sapiens, UniProt P18031).
T1 sequence (P18031 whole entry): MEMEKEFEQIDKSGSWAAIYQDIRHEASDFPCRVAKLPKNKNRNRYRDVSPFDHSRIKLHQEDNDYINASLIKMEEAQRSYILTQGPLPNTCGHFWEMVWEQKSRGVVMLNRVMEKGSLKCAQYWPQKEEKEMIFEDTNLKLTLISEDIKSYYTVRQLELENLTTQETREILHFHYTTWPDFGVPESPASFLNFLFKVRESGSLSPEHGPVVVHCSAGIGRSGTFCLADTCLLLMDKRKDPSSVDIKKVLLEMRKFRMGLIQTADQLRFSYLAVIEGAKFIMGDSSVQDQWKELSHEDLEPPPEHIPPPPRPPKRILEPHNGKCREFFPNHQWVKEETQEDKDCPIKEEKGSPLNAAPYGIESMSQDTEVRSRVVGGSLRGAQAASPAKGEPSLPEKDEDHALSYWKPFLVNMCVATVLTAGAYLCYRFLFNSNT
In words: Inhibition of human recombinant PTP1B assessed as reduction in pNPP substrate hydrolysis incubated for 30 mins.

The subject of data set [3] is RAW264.7. In words: Inhibition of LPS-induced nitric oxide production in mouse RAW264.7 cells pre-treated for 3 hrs before LPS stimulation by ELISA based Griess assay. In kind it is functional, cell-based.
For data set [4], the system named is RAW264.7. In words: Inhibition of LPS-induced iNOS protein expression in mouse RAW264.7 cells pre-treated for 1 hr before LPS stimulation for 18 hrs by Western blot method. In kind it is functional, cell-based. Background: A western blot detects proteins with antibodies after separation by electrophoresis.
Data set [5] relates to RAW264.7. The data set is described as follows: Inhibition of LPS-induced COX2 protein expression in mouse RAW264.7 cells pre-treated for 1 hr before LPS stimulation for 18 hrs by Western blot method. In kind it is functional, cell-based.
Data set [6] deals with BV-2. In words: Inhibition of LPS-induced iNOS protein expression in mouse BV2 cells pre-treated for 1 hr before LPS stimulation for 18 hrs by Western blot method. In kind it is functional, cell-based.
The test system of data set [7] is BV-2. The data set is described as follows: Inhibition of LPS-induced COX2 protein expression in mouse BV2 cells pre-treated for 1 hr before LPS stimulation for 18 hrs by Western blot method. In kind it is functional, cell-based.
The nature of data set [8]: Effect on beta-actin protein expression in LPS-induced mouse BV2 cells pre-treated for 1 hr before LPS stimulation for 18 hrs by Western blot method. In kind it is ADME, cell-based. Conditions: bv-2, 18 h.
Data set [9] deals with RAW264.7. The data set is described as follows: Effect on beta-actin protein expression in LPS-induced mouse RAW264.7 cells pre-treated for 1 hr before LPS stimulation for 18 hrs by Western blot method. In kind it is ADME, cell-based. Conditions: raw264.7, 18 h.
Data set [10] concerns BV-2. The data set is described as follows: Inhibition of LPS-induced PGE2 production in mouse BV2 cells pre-treated for 3 hrs before LPS stimulation for 24 hrs by ELISA. In kind it is functional, cell-based.
Data set [11] has as its system RAW264.7. The data set is described as follows: Inhibition of LPS-induced PGE2 production in mouse RAW264.7 cells pre-treated for 3 hrs before LPS stimulation for 24 hrs by ELISA. In kind it is functional, cell-based. A general note: ELISA stands for enzyme-linked immunosorbent assay.
Data set [12] relates to BV-2. The data set is described as follows: Inhibition of LPS-induced IL-1beta production in mouse BV2 cells pre-treated for 3 hrs before LPS stimulation for 24 hrs by ELISA. In kind it is functional, cell-based.
For data set [13], the target named is T2, Tyrosine-protein phosphatase non-receptor type 1 (Homo sapiens) (UniProt P18031).
T2 sequence (whole entry): T1 sequence (P18031 whole entry)
The data set is described as follows: Inhibition of human recombinant PTP1B assessed as reduction in pNPP substrate hydrolysis at 30 uM incubated for 30 mins.

pIC50: −log10 of the molar value. The source made the active and inactive calls. No cut-off for these calls is given here.

On to `C[C@H]1C[C@@H](C)[C@@H]2[C@@H](/C=C/C=C/C(=O)O)[C@@H](C)C=C[C@H]2C1`, for which the values for the pIC50 (with BV-2 [1]; in data set [2]) were 4.37 and 5.09, respectively.
As for `Cc1ccc2c(c1/C=C/C=C/C(=O)O)[C@H](C)C[C@H](C)C2`, the pIC50 in the data set on RAW264.7 [3] is 4.57; in the data set on BV-2 [1], 5.15; with BV-2 [10], 4.76; in the data set on RAW264.7 [11], 4.80; with BV-2 [12], 4.66; in data set [2], 5.09. The inhibition entry in the data set on RAW264.7 [4], in the data set with RAW264.7 [5], with BV-2 [6] and with BV-2 [7] was “Dose-dependent effect” each time. In addition, the Activity result (in data set [8]; in the data set with RAW264.7 [9]) was “Non-toxic” in each case.
Take `Cc1ccc2c(c1/C=C/C=C/C(=O)O)[C@H](C)C[C@@](C)(O)C2`: the inhibition in [13] worked out at 24.1%.
On to `Cc1ccc2c(c1/C=C\C=C\C(=O)O)[C@H](C)C[C@@](C)(O)C2`, for which, in the data set on BV-2 [1], the pIC50 is 4.42. For the same compound, the inhibition in data set [13] turned out to be 27.3%.
As to `C[C@@H]1C[C@@](C)(O)C[C@@H]2C=C[C@H](C)[C@H](/C=C/C=C/C(=O)O)[C@@H]12`, in data set [13], the inhibition result was “inactive”.

In general, pIC50 refers to −log10 of the IC50, conventionally taken in molar units. What is called inhibition is how much of the control response was suppressed.
